From patent US10745397B2, “1-Substituted 1,2,3,4-tetrahydro-1,7-naphthyridin-8-amine derivatives and their use as EP4 receptor antagonists” (TAKEDA PHARMACEUTICAL COMPANY LIMITED, priority 2015, dated 2020)

Assays:
[1] = test system: Adjuvant Induced Arthritis (AIA) Model in Female Lewis Rats; assay: Suppression of arthritis development in adjuvant induced arthritis (AIA) model, arthritis score; type: in vivo, rat; conditions: PO; for % reduction in arthritis score: day 14 to day 23, compared to vehicle treatment at end of study period; for ED50: Rattus norvegicus, BID, female Lewis rats
Experimental: Adjuvant arthritis was induced on day 1 in female Lewis rats (10-12 weeks) by intradermal injection of heat killed Mycobacterium tuberculosis in complete freund's adjuvant (CFA) intradermally (Mycobacterium tuberculosis 100 mg in 5 mL incomplete freunds adjuvant, 200 μL per rat). Animals were randomized into different treatment groups, each group consist of 8 animals based on clinical scores on day 14. The animals in control group were given CFA and in second control group were administered with CFA and vehicle (1% Tween-80+0.5% CMC, quantity sufficient, 3 ml/kg, PO), where as animals in experimental groups were treated with CFA and EP4 antagonist (Example B2 and Example B4) in therapeutic fashion orally twice a day (BID) from day 14 to day 23 at 0.1, 0.3, 1, 3, 10 and 30 mg/kg doses.
Animals were evaluated for clinical symptoms and scored accordingly for inflamed paws and erythema. The scorer was blind to the treatment groups. Key findings for example B2 (Refer FIG. 1) and B4 (Refer FIG. 2) in rat arthritis model are as follows.

[2] = biological target: T1, hEP4 (C6 glioma cells overexpressing hEP4) (Homo sapiens, UniProt P35408); assay: hEP4 cell based assay (cAMP), inhibition of PGE2 induced cAMP, HTRF; conditions: 1 μM compound, PGE2 at EC80
T1 construct: host or cells: C6 glioma cells overexpressing hEP4
Procedure, shortened: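 C6 glioma cells overexpressing hEP4 were pre-incubated 15 min with compound plus IBMX and Ro 20-1724 (each […]), then stimulated 30 min with PGE2 at EC80; 1% DMSO. cAMP was read by competitive HTRF (665/620 nm); IC50 came from non-linear regression, with agonist-only as 0% and no-agonist as 100% inhibition.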

human EP4 receptor = biological target: T2, human EP4 receptor (Homo sapiens, UniProt P35408); assay: hEP4 radioligand binding assay ([3H] PGE2 competitive binding, membrane fractions); conditions: 300 nM compound; 1 nM [3H] PGE2
T2 construct: expressed in transfected cells; host or cells: FreeStyle293 (HEK293F) cells, transient transfection with pcDNA3.1(+), total membrane fraction
Procedure, shortened: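 Membranes from FreeStyle293 (HEK293F) cells transiently expressing full-length human EP4; 10 μg protein incubated with compound and 1 nM [3H]PGE2 in 50 mM Tris-HCl pH 6.0, 10 mM MgCl2, 0.5 mM EDTA, 1% DMSO, 2 h at room temperature. Nonspecific binding with 10 μM unlabeled PGE2; filtration and scintillation counting; Ki by one-site fit.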

T1 sequence (P35408 whole entry): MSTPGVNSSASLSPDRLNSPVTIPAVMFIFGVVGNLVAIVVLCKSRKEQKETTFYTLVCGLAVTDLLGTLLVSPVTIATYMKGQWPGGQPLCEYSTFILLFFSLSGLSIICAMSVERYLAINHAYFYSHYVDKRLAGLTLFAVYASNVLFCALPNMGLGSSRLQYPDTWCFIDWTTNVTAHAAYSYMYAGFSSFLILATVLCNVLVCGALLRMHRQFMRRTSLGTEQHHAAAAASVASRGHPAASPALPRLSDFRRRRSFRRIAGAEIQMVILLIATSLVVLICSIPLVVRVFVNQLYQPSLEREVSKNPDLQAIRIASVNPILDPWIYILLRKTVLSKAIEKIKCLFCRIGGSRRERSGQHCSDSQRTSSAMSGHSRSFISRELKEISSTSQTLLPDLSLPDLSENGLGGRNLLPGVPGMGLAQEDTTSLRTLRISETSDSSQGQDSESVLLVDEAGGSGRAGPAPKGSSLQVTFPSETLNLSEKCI
T2 sequence (P35408 whole entry): as above

inhibition at 1 µM [2] [%] | inhibition at 0.3 µM (human EP4 receptor) [%] | Structure (SMILES) | % reduction in arthritis score ([1]; 0.1 mg/kg BID) [%] | % reduction in arthritis score ([1]; 0.3 mg/kg BID) [%] | % reduction in arthritis score ([1]; 1 mg/kg BID) [%] | % reduction in arthritis score ([1]; 3 mg/kg BID) [%] | % reduction in arthritis score ([1]; 10 mg/kg BID) [%] | % reduction in arthritis score ([1]; 30 mg/kg BID) [%] | ED50 [1] [mg/kg]
100 | 98 | C[C@H](Nc1nccc2c1N(Cc1cccc(Cl)c1)CCO2)c1ccc(C(=O)O)cc1 [Example B2, 4-[(1S)-1-[[4-[(3-Chlorophenyl)methyl]-2,3-dihydropyrido[4,3-b][1,4]oxazin-5-yl]amino]ethyl]benzoic acid] | 23 | 45 | 46 | 67 | 68 | 71 | 0.76
97 | 83 | O=C(O)c1ccc(C2(Nc3nccc4c3N(Cc3ccc(F)c(F)c3)CCO4)CC2)cc1 [Example B4, 4-[1-[[4-[(3,4-Difluorophenyl)methyl]-2,3-dihydropyrido[4,3-b][1,4]oxazin-5-yl]amino]cyclopropyl]benzoic acid] | 3 | 4 | 27 | 39 | 51 | 55 | 8.8
